How the values were obtained:
LucPpy = target: T1, LucPpy (Photinus pyralis, UniProt P08659); experiment: Stability of reagent composition with LucPpy and detergent (RT, pH 7.0); type: biochemical; conditions: for Average Relative Light Units / Percent of Luminescence Remaining: LucPpy
T1 construct: purchased Promega E170A
Source text: (§1) The detergents used for inhibition of endogenous ATPase activity in a sample also affect activity of luciferase. […] It is ultimately the extended stability of a reagent composition, comprising an ATPase inhibitor and a luciferase enzyme, which provides a composition useful for measuring ATP, in a sample or samples, over an extended period of time.
(§2) In this experiment, the stability of a reagent composition comprising wild type LucPpy was compared to the stability of a reagent composition comprising LucPpe2m146 at about 23° C. (room temperature). The various reagent compositions had varying detergent concentrations.
(§3) Two solutions were created as listed below. One contained the luciferase, luciferin, MgSO4, and buffer (reagent composition). The other solution contained media plus ATP (media solution).
(§4) 50 μg/ml enzyme (LucPpy is Promega catalog #E170A)
(§5) Detergent (at various concentrations, see table below)
(§6) For each reagent composition, all ingredients except the luciferase enzyme were assembled; the enzyme was then added immediately before the first luminescence reading was taken. Immediately after addition of enzyme to each reagent composition and for various timepoints thereafter, 100 μl aliquots of the reagent composition were added to wells of a 96-well microtitre luminometer plate in triplicate. To these were added 100 μl Media Solution containing the ATP. Luminescence was then immediately read on a Dynex MLX microtitreplate luminometer, 0.5 second reads per well. The average relative light unit values as well as the reaction half lives are listed below in Table I and the percent of original luminescence remaining at each timepoint is listed in Table J below. The timepoint at the top of the column indicates the time at which the first rlu measurement for the samples in that column was read. […] Times listed in Table I are the same for Table J. The values for sulfobetaine and for CTAB were generated on different days, they are presented with the control values generated in the same experiment.

LucPpe2m146 = experiment: Stability of reagent composition with LucPpe2m146 and detergent (RT, pH 7.0); type: biochemical, Photuris pennsylvanica
Source text: as §1, §2, §3, §4, §5, §6

CCCCCCCCCCCCOS(=O)(=O)[O-].[Na+] [SDS, Sodium dodecyl sulfate]
Half-life of Luminescence Activity (LucPpy; Common firefly luciferase (P. pyralis), conc. 0.050): no activity | Average Relative Light Units (LucPpy; 0.002%, 0.75 min (head r32)): 640.290 rlu | Percent of Luminescence Remaining (LucPpy; 0.002%, 0.75 min (times of Table I r32)): 100.00% | Average Relative Light Units (LucPpy; 0.002%, 38 min (head r32)): 190.860 rlu | Percent of Luminescence Remaining (LucPpy; 0.002%, 38 min (times of Table I r32)): 29.81% | Average Relative Light Units (LucPpy; 0.002%, 70 min (head r32)): 84.210 rlu | Percent of Luminescence Remaining (LucPpy; 0.002%, 70 min (times of Table I r32)): 13.15% | Average Relative Light Units (LucPpy; 0.002%, 94 min (head r32)): 47.210 rlu | Percent of Luminescence Remaining (LucPpy; 0.002%, 94 min (times of Table I r32)): 7.37% | Average Relative Light Units (LucPpy; 0.002%, 122 min (head r32)): 25.630 rlu | Percent of Luminescence Remaining (LucPpy; 0.002%, 122 min (times of Table I r32)): 4.0% | Average Relative Light Units (LucPpy; 0.01%, 0.75 min (head r18)): 0.175 rlu | Average Relative Light Units (LucPpy; 0.01%, 0.75 min (head r32)): 17.584 rlu | Percent of Luminescence Remaining (LucPpy; 0.01%, 0.75 min (times of Table I r18)): 100.00% | Average Relative Light Units (LucPpy; 0.01%, 10 min (head r18)): 0.016 rlu | Percent of Luminescence Remaining (LucPpy; 0.01%, 10 min (times of Table I r18)): 9.14% | Average Relative Light Units (LucPpy; 0.01%, 38 min (head r32)): 0.001 rlu | Average Relative Light Units (LucPpy; 0.05%, 0.75 min (head r5)): 0.007 rlu | Percent of Luminescence Remaining (LucPpy; 0.05%, 0.75 min (times of Table I r5)): 100.00% | Average Relative Light Units (LucPpe2m146; LucPpe2m146, 0.002%, 1.0 min (head r67)): 24265.83 rlu | Percent of Luminescence Remaining (LucPpe2m146; LucPpe2m146, 0.002%, 1.0 min (times of Table I r67)): 100.00% | Average Relative Light Units (LucPpe2m146; LucPpe2m146, 0.002%, 34 min (head r67)): 24213.97 rlu | Percent of Luminescence Remaining (LucPpe2m146; LucPpe2m146, 0.002%, 34 min (times of Table I r67)): 99.79% | Average Relative Light Units (LucPpe2m146; LucPpe2m146, 0.002%, 65 min (head r67)): 24725.73 rlu | Percent of Luminescence Remaining (LucPpe2m146; LucPpe2m146, 0.002%, 65 min (times of Table I r67)): 101.90% | Average Relative Light Units (LucPpe2m146; LucPpe2m146, 0.002%, 115 min (head r67)): 22654.87 rlu | Percent of Luminescence Remaining (LucPpe2m146; LucPpe2m146, 0.002%, 115 min (times of Table I r67)): 93.36% | Average Relative Light Units (LucPpe2m146; LucPpe2m146, 0.002%, 175 min (head r67)): 23856.73 rlu | Percent of Luminescence Remaining (LucPpe2m146; LucPpe2m146, 0.002%, 175 min (times of Table I r67)): 98.31% | Average Relative Light Units (LucPpe2m146; LucPpe2m146, 0.002%, 238 min (head r67)): 23425.5 rlu | Percent of Luminescence Remaining (LucPpe2m146; LucPpe2m146, 0.002%, 238 min (times of Table I r67)): 96.54% | Average Relative Light Units (LucPpe2m146; LucPpe2m146, 0.002%, 286 min (head r67)): 23275.6 rlu | Percent of Luminescence Remaining (LucPpe2m146; LucPpe2m146, 0.002%, 286 min (times of Table I r67)): 95.92% | Average Relative Light Units (LucPpe2m146; LucPpe2m146, 0.01%, 1.0 min (head r54)): 24.46 rlu | Percent of Luminescence Remaining (LucPpe2m146; LucPpe2m146, 0.01%, 1.0 min (times of Table I r54)): 100.00% | Average Relative Light Units (LucPpe2m146; LucPpe2m146, 0.01%, 34 min (head r54)): 27.85 rlu | Percent of Luminescence Remaining (LucPpe2m146; LucPpe2m146, 0.01%, 34 min (times of Table I r54)): 113.85% | Average Relative Light Units (LucPpe2m146; LucPpe2m146, 0.01%, 65 min (head r54)): 10.77 rlu | Percent of Luminescence Remaining (LucPpe2m146; LucPpe2m146, 0.01%, 65 min (times of Table I r54)): 44.02% | Average Relative Light Units (LucPpe2m146; LucPpe2m146, 0.01%, 115 min (head r54)): 6.45 rlu | Percent of Luminescence Remaining (LucPpe2m146; LucPpe2m146, 0.01%, 115 min (times of Table I r54)): 26.38% | Average Relative Light Units (LucPpe2m146; LucPpe2m146, 0.01%, 175 min (head r54)): 2.02 rlu | Percent of Luminescence Remaining (LucPpe2m146; LucPpe2m146, 0.01%, 175 min (times of Table I r54)): 8.25% | Average Relative Light Units (LucPpe2m146; LucPpe2m146, 0.01%, 238 min (head r54)): 2.44 rlu | Percent of Luminescence Remaining (LucPpe2m146; LucPpe2m146, 0.01%, 238 min (times of Table I r54)): 9.97% | Average Relative Light Units (LucPpe2m146; LucPpe2m146, 0.01%, 286 min (head r54)): 0.62 rlu | Percent of Luminescence Remaining (LucPpe2m146; LucPpe2m146, 0.01%, 286 min (times of Table I r54)): 2.53% | Average Relative Light Units (LucPpe2m146; LucPpe2m146, 0.05%, 15 min (head r41)): 0.018 rlu | Percent of Luminescence Remaining (LucPpe2m146; LucPpe2m146, 0.05%, 15 min (times of Table I r41)): 100.00% | Average Relative Light Units (LucPpe2m146; LucPpe2m146, 0.05%, 72 min (head r41)): 0.012 rlu | Percent of Luminescence Remaining (LucPpe2m146; LucPpe2m146, 0.05%, 72 min (times of Table I r41)): 65.68% | Average Relative Light Units (LucPpe2m146; LucPpe2m146, 0.05%, 124 min (head r41)): 0.001 rlu | Percent of Luminescence Remaining (LucPpe2m146; LucPpe2m146, 0.05%, 124 min (times of Table I r41)): 6.09% | Average Relative Light Units (LucPpe2m146; LucPpe2m146, 0.05%, 190 min (head r41)): 0.006 rlu | Percent of Luminescence Remaining (LucPpe2m146; LucPpe2m146, 0.05%, 190 min (times of Table I r41)): 35.06% | Average Relative Light Units (LucPpe2m146; LucPpe2m146, 0.05%, 251 min (head r41)): 0.016 rlu | Percent of Luminescence Remaining (LucPpe2m146; LucPpe2m146, 0.05%, 251 min (times of Table I r41)): 87.64%
